Assay results from PubChem BioAssay AID2060337 (Molecular Pharmacology Branch, DTP, NCI, 2025).

System: 832693-133-R-J1-PDC multi-cell spheroids, viability
Assay: Anticancer human tumor 832693-133-R-J1-PDC patient-derived head and neck squamous carcinoma cell line growth inhibition [IpAb]
Conditions: for IC50: curve of first compound; for viability, T/C: stronger effect = lower value
Outline: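 Combinations with ipatasertib or abemaciclib were tested on tumour spheroids holding HUVEC (25%) and MSC (15%) alongside 60% malignant cells. Top concentration was at or near clinical Cmax (10 microM if undefined), descending in half-log steps.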

[1] = second compound 0.1 µM, first compound 0.0316 µM
[2] = second compound 0.1 µM, first compound 0.1 µM
[3] = second compound 0.1 µM, first compound 0.316 µM
[4] = second compound 0.1 µM, first compound 1 µM
[5] = second compound 0.1 µM, first compound 3.16 µM
[6] = second compound 0.1 µM, first compound 10 µM
[7] = second compound 0.316 µM, first compound 0.0316 µM
[8] = second compound 0.316 µM, first compound 0.1 µM
[9] = second compound 0.316 µM, first compound 0.316 µM
[10] = second compound 0.316 µM, first compound 1 µM
[11] = second compound 0.316 µM, first compound 3.16 µM
[12] = second compound 0.316 µM, first compound 10 µM
[13] = second compound 1 µM, first compound 0.0316 µM
[14] = second compound 1 µM, first compound 0.1 µM
[15] = second compound 1 µM, first compound 0.316 µM
[16] = second compound 1 µM, first compound 1 µM
[17] = second compound 1 µM, first compound 3.16 µM
[18] = second compound 1 µM, first compound 10 µM
[19] = second compound 3.16 µM, first compound 0.0316 µM
[20] = second compound 3.16 µM, first compound 0.1 µM
[21] = second compound 10 µM, first compound 0.0316 µM
[22] = second compound 10 µM, first compound 0.1 µM
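Further: spheroids exposed to the drugs for one week before the viability readout.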
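Wherever viability, T/C is given: 100% = DMSO vehicle control wells.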

`Cn1ncc(Cl)c1-c1cc(C(=O)NC(CN)Cc2cccc(F)c2)sc1Cl` (stereo not given) + CC(C)NCC(C(=O)N1CCN(c2ncnc3c2C(C)CC3O)CC1)c1ccc(Cl)cc1 gave an IC50 (second compound 0.1 µM) of 4960 nM, an IC50 (second compound 0.316 µM) of 4800 nM and an IC50 (second compound 1 µM) of 3750 nM. The IC50 (second compound 3.16 µM) was 4140 nM, the IC50 (second compound 10 µM) was 2630 nM and the viability, T/C [1] was 94.7%. The viability, T/C [2] was 87.5%, the viability, T/C [3] was 75.5% and the viability, T/C [4] was 61.1%. It also gave a viability, T/C [5] of 90.1%, a viability, T/C [6] of 0.23% and a viability, T/C [7] of 82.7%. The viability, T/C [8] was 73.1%, the viability, T/C [9] was 79.9% and the viability, T/C [10] was 63.2%. For the same molecule, the viability, T/C [11] was 92.3%, the viability, T/C [12] was 0.22% and the viability, T/C [13] was 47.9%. For the same molecule, the viability, T/C [14] was 59.8%, the viability, T/C [15] was 54.6% and the viability, T/C [16] was 56.6%. For the same molecule, the viability, T/C [17] was 74.3%, the viability, T/C [18] was 0.2% and the viability, T/C [19] was 50.1%. It also gave a viability, T/C [20] of 59.1%, a viability, T/C (second compound 3.16 µM, first compound 0.316 µM) of 66.1% and a viability, T/C (second compound 3.16 µM, first compound 1 µM) of 70.3%. It also gave a viability, T/C (second compound 3.16 µM, first compound 3.16 µM) of 80.8%, a viability, T/C (second compound 3.16 µM, first compound 10 µM) of 0.2% and a viability, T/C [21] of 67.2%. For the same molecule, the viability, T/C [22] was 73%, the viability, T/C (second compound 10 µM, first compound 0.316 µM) was 69.5% and the viability, T/C (second compound 10 µM, first compound 1 µM) was 73.8%. For the same molecule, the viability, T/C (second compound 10 µM, first compound 3.16 µM) was 46.1% and the viability, T/C (second compound 10 µM, first compound 10 µM) was 0.24%.
With `Cn1ncnc1[C@H]1c2n[nH]c(=O)c3cc(F)cc(c23)N[C@@H]1c1ccc(F)cc1` + CC(C)NCC(C(=O)N1CCN(c2ncnc3c2C(C)CC3O)CC1)c1ccc(Cl)cc1 the IC50 (second compound 0.1 µM) was over 100 nM, the IC50 (second compound 0.316 µM) was over 100 nM and the IC50 (second compound 1 µM) was 4.7 nM. For the same molecule, the IC50 (second compound 3.16 µM) was 8.16 nM, the IC50 (second compound 10 µM) was over 100 nM and the viability, T/C (second compound 0.1 µM, first compound 0.000316 µM) was 96%. It also gave a viability, T/C (second compound 0.1 µM, first compound 0.001 µM) of 94%, a viability, T/C (second compound 0.1 µM, first compound 0.00316 µM) of 74.7% and a viability, T/C (second compound 0.1 µM, first compound 0.01 µM) of 80.7%. For the same molecule, the viability, T/C [1] was 85.6%, the viability, T/C [2] was 72.4% and the viability, T/C (second compound 0.316 µM, first compound 0.000316 µM) was 77.8%. It also gave a viability, T/C (second compound 0.316 µM, first compound 0.001 µM) of 87.5%, a viability, T/C (second compound 0.316 µM, first compound 0.00316 µM) of 69.2% and a viability, T/C (second compound 0.316 µM, first compound 0.01 µM) of 61.1%. For the same molecule, the viability, T/C [7] was 65.3%, the viability, T/C [8] was 52.9% and the viability, T/C (second compound 1 µM, first compound 0.000316 µM) was 59.5%. The viability, T/C (second compound 1 µM, first compound 0.001 µM) was 56.8%, the viability, T/C (second compound 1 µM, first compound 0.00316 µM) was 49.3% and the viability, T/C (second compound 1 µM, first compound 0.01 µM) was 48%. For the same molecule, the viability, T/C [13] was 42.7%, the viability, T/C [14] was 35.9% and the viability, T/C (second compound 3.16 µM, first compound 0.000316 µM) was 57.9%. For the same molecule, the viability, T/C (second compound 3.16 µM, first compound 0.001 µM) was 61%, the viability, T/C (second compound 3.16 µM, first compound 0.00316 µM) was 56.1% and the viability, T/C (second compound 3.16 µM, first compound 0.01 µM) was 46.5%. The viability, T/C [19] was 41.7%, the viability, T/C [20] was 36.2% and the viability, T/C (second compound 10 µM, first compound 0.000316 µM) was 83.5%. The viability, T/C (second compound 10 µM, first compound 0.001 µM) was 69.4%, the viability, T/C (second compound 10 µM, first compound 0.00316 µM) was 65% and the viability, T/C (second compound 10 µM, first compound 0.01 µM) was 62.6%. The viability, T/C [21] was 63.2% and the viability, T/C [22] was 47.8%.
`C=CCn1c(=O)c2cnc(Nc3ccc(N4CCN(C)CC4)cc3)nc2n1-c1cccc(C(C)(C)O)n1` + CCN1CCN(Cc2ccc(Nc3ncc(F)c(-c4cc(F)c5nc(C)n(C(C)C)c5c4)n3)nc2)CC1 showed an IC50 (second compound 0.01 µM) of 233 nM, an IC50 (second compound 0.0316 µM) of 246 nM and an IC50 (second compound 0.1 µM) of 138 nM. For the same molecule, the IC50 (second compound 0.316 µM) was 134 nM, the IC50 (second compound 1 µM) was 2620 nM and the viability, T/C (second compound 0.01 µM, first compound 0.0316 µM) was 93.9%. For the same molecule, the viability, T/C (second compound 0.01 µM, first compound 0.1 µM) was 66.6%, the viability, T/C (second compound 0.01 µM, first compound 0.316 µM) was 42.4% and the viability, T/C (second compound 0.01 µM, first compound 1 µM) was 28.9%. For the same molecule, the viability, T/C (second compound 0.01 µM, first compound 3.16 µM) was 27.5%, the viability, T/C (second compound 0.01 µM, first compound 10 µM) was 13.9% and the viability, T/C (second compound 0.0316 µM, first compound 0.0316 µM) was 74.7%. It also gave a viability, T/C (second compound 0.0316 µM, first compound 0.1 µM) of 68%, a viability, T/C (second compound 0.0316 µM, first compound 0.316 µM) of 40.4% and a viability, T/C (second compound 0.0316 µM, first compound 1 µM) of 33.2%. The viability, T/C (second compound 0.0316 µM, first compound 3.16 µM) was 29.3%, the viability, T/C (second compound 0.0316 µM, first compound 10 µM) was 14.9% and the viability, T/C [1] was 65.9%. It also gave a viability, T/C [2] of 51.8%, a viability, T/C [3] of 41.6% and a viability, T/C [4] of 33.3%. It also gave a viability, T/C [5] of 30.9%, a viability, T/C [6] of 19.1% and a viability, T/C [7] of 53.4%. For the same molecule, the viability, T/C [8] was 52.9%, the viability, T/C [9] was 47.9% and the viability, T/C [10] was 37.4%. The viability, T/C [11] was 35.2%, the viability, T/C [12] was 25% and the viability, T/C [13] was 61.9%. The viability, T/C [14] was 65.9%, the viability, T/C [15] was 56.7% and the viability, T/C [16] was 53.6%. For the same molecule, the viability, T/C [17] was 51.6% and the viability, T/C [18] was 23.8%.
`Cn1cnc2c(F)c(Nc3ccc(Br)cc3Cl)c(C(=O)NOCCO)cc21` + CCN1CCN(Cc2ccc(Nc3ncc(F)c(-c4cc(F)c5nc(C)n(C(C)C)c5c4)n3)nc2)CC1 gave an IC50 (second compound 0.01 µM) of 118 nM, an IC50 (second compound 0.0316 µM) of 49 nM and an IC50 (second compound 0.1 µM) of under 9.49 nM. The IC50 (second compound 0.316 µM) was 15.3 nM, the IC50 (second compound 1 µM) was 170 nM and the viability, T/C (second compound 0.01 µM, first compound 0.00949 µM) was 62.4%. The viability, T/C (second compound 0.01 µM, first compound 0.03 µM) was 58.7%, the viability, T/C (second compound 0.01 µM, first compound 0.0949 µM) was 50.4% and the viability, T/C (second compound 0.01 µM, first compound 0.3 µM) was 41.3%. It also gave a viability, T/C (second compound 0.01 µM, first compound 0.949 µM) of 34%, a viability, T/C (second compound 0.01 µM, first compound 3 µM) of 14.1% and a viability, T/C (second compound 0.0316 µM, first compound 0.00949 µM) of 54.3%. The viability, T/C (second compound 0.0316 µM, first compound 0.03 µM) was 57.5%, the viability, T/C (second compound 0.0316 µM, first compound 0.0949 µM) was 44.5% and the viability, T/C (second compound 0.0316 µM, first compound 0.3 µM) was 35.5%. The viability, T/C (second compound 0.0316 µM, first compound 0.949 µM) was 29.1%, the viability, T/C (second compound 0.0316 µM, first compound 3 µM) was 13.4% and the viability, T/C (second compound 0.1 µM, first compound 0.00949 µM) was 47.2%. For the same molecule, the viability, T/C (second compound 0.1 µM, first compound 0.03 µM) was 47.4%, the viability, T/C (second compound 0.1 µM, first compound 0.0949 µM) was 36.4% and the viability, T/C (second compound 0.1 µM, first compound 0.3 µM) was 32.1%. It also gave a viability, T/C (second compound 0.1 µM, first compound 0.949 µM) of 24.4%, a viability, T/C (second compound 0.1 µM, first compound 3 µM) of 12.6% and a viability, T/C (second compound 0.316 µM, first compound 0.00949 µM) of 54.7%. The viability, T/C (second compound 0.316 µM, first compound 0.03 µM) was 43.9%, the viability, T/C (second compound 0.316 µM, first compound 0.0949 µM) was 36.1% and the viability, T/C (second compound 0.316 µM, first compound 0.3 µM) was 34.8%. For the same molecule, the viability, T/C (second compound 0.316 µM, first compound 0.949 µM) was 25.3%, the viability, T/C (second compound 0.316 µM, first compound 3 µM) was 15.1% and the viability, T/C (second compound 1 µM, first compound 0.00949 µM) was 64.6%. For the same molecule, the viability, T/C (second compound 1 µM, first compound 0.03 µM) was 58.2%, the viability, T/C (second compound 1 µM, first compound 0.0949 µM) was 51.5% and the viability, T/C (second compound 1 µM, first compound 0.3 µM) was 47.9%. For the same molecule, the viability, T/C (second compound 1 µM, first compound 0.949 µM) was 40.7% and the viability, T/C (second compound 1 µM, first compound 3 µM) was 28.2%.
